# Measurements reported in patent US20240409585A1, “MACROCYCLIC IMMUNOMODULATORS” (priority 2021, published 2024).
# Bridge positions count the residues as written; N and C are the ends. Square brackets hold non-standard residues; d marks the D form. Peptide text beside a SMILES is read from it. * marks the point of attachment. Tyr(3-NO2) = N[C@@H](Cc1ccc(O)c([N+](=O)[O-])c1)C(=O)O; Phe(4-COOH) = N[C@@H](Cc1ccc(C(=O)O)cc1)C(=O)O; Bip = N[C@@H](Cc1ccc(-c2ccccc2)cc1)C(=O)O; Phe(3-CN) = N#Cc1cccc(C[C@H](N)C(=O)O)c1; Phe(3-OMe) = COc1cccc(C[C@H](N)C(=O)O)c1; Phe(4-CN) = N#Cc1ccc(C[C@H](N)C(=O)O)cc1; 3Pal = N[C@@H](Cc1cccnc1)C(=O)O; 4Pal = N[C@@H](Cc1ccncc1)C(=O)O; Cit = NC(=O)NCCC[C@H](N)C(=O)O; Pip = O=C(O)[C@@H]1CCCCN1; Carboxymethyl = O=C(O)C*; NMeA = CN[C@@H](C)C(=O)O; Dab = NCC[C@H](N)C(=O)O; Dap = NC[C@H](N)C(=O)O
# Molecular target: T1, PE-labeled human PD-L1-Ig binding to Jurkat cell line over-expressing human PD-1 (Jurkat-PD-1) (Homo sapiens, UniProt Q15116)
# T1 construct: expressed in transfected cells; host or cells: Jurkat
# T1 sequence (Q15116 25-288): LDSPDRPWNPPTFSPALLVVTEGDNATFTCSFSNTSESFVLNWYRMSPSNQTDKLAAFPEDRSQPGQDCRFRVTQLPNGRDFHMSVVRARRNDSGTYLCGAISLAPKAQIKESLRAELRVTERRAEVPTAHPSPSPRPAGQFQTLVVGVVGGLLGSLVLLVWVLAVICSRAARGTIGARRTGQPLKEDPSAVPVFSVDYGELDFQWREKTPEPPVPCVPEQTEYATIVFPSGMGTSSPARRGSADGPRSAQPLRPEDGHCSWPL
# Test: Jurkat-PD-1 Cell Binding High-Content Screening Assay (CBA): Method 1
# Details: Jurkat-hPD-1 cells, PE-labeled PD-L1-Ig 20 nM final; read-out: Jurkat HPDL1 PD1 IC50 (uM) (Method 1)
row,IC50,Compound
1,0.01 µM,CC[C@H](C)[C@@H]1NC(=O)[C@H](Cc2ccc(-c3ccccc3)cc2)NC(=O)[C@H](C(C)C)NC(=O)[C@H](Cc2c[nH]c3ccccc23)NC(=O)[C@H](CC(=O)O)NC(=O)[C@H](Cc2ccc(OCC(=O)O)cc2)NC(=O)[C@H](CC(N)=O)NC(=O)CSC[C@@H](C(=O)N[C@@H](C)C(N)=O)NC(=O)[C@H]([C@@H](C)O)NC(=O)[C@H](C(C)C)NC(=O)[C@H](CC(C)C)NC(=O)[C@H](CCN)NC(=O)[C@@H](CC(C)C)NC(=O)[C@H](C)N(C)C1=O [Compound 1396] ({CH2CO}-NY(Carboxymethyl)DWV[Bip]I[NMeA][dL][Dab]LVTCA-NH2; thioether N-14)
2,0.02 µM,CC[C@H](C)[C@@H]1NC(=O)[C@H](Cc2ccc(-c3ccccc3)cc2)NC(=O)[C@H](C(C)C)NC(=O)[C@H](Cc2c[nH]c3ccccc23)NC(=O)[C@H](CC(=O)O)NC(=O)[C@H](Cc2cccc(C#N)c2)NC(=O)[C@H](CC(N)=O)NC(=O)CSC[C@@H](C(=O)N[C@@H](C)C(N)=O)NC(=O)[C@H]([C@@H](C)O)NC(=O)[C@H](C(C)C)NC(=O)[C@H](CC(C)C)NC(=O)[C@H](CCN)NC(=O)[C@@H](CC(C)C)NC(=O)[C@H](C)N(C)C1=O [Compound 1397] ({CH2CO}-N[Phe(3-CN)]DWV[Bip]I[NMeA][dL][Dab]LVTCA-NH2; thioether N-14)
3,0.14 µM,CC[C@H](C)[C@@H]1NC(=O)[C@H](Cc2ccc(-c3ccccc3)cc2)NC(=O)[C@H](C(C)C)NC(=O)[C@H](Cc2c[nH]c3ccccc23)NC(=O)[C@H](CC(=O)O)NC(=O)[C@H](Cc2ccc(O)cc2)NC(=O)[C@H](CC(N)=O)NC(=O)CSC[C@@H](C(=O)N[C@@H](C)C(N)=O)NC(=O)[C@H]([C@@H](C)O)NC(=O)[C@H](C(C)C)NC(=O)[C@H](CC(C)C)NC(=O)[C@H](CCN)NC(=O)[C@@H](CC(C)C)NC(=O)[C@@H]2CCCCN2C1=O [Compound 1399] ({CH2CO}-NYDWV[Bip]I[Pip][dL][Dab]LVTCA-NH2; thioether N-14)
4,0.02 µM,CC[C@H](C)[C@@H]1NC(=O)[C@H](Cc2ccc(-c3ccccc3)cc2)NC(=O)[C@H](C(C)C)NC(=O)[C@H](Cc2c[nH]c3ccccc23)NC(=O)[C@H](CC(=O)O)NC(=O)[C@H](Cc2ccc(O)cc2)NC(=O)[C@H](Cc2ccncc2)NC(=O)CSC[C@@H](C(=O)N[C@@H](C)C(N)=O)NC(=O)[C@H]([C@@H](C)O)NC(=O)[C@H](C(C)C)NC(=O)[C@H](CC(C)C)NC(=O)[C@H](CCN)NC(=O)[C@@H](CC(C)C)NC(=O)[C@H](C)N(C)C1=O [Compound 1400] ({CH2CO}-[4Pal]YDWV[Bip]I[NMeA][dL][Dab]LVTCA-NH2; thioether N-14)
5,0.01 µM,CC[C@H](C)[C@@H]1NC(=O)[C@H](Cc2ccc(-c3ccccc3)cc2)NC(=O)[C@H](C(C)C)NC(=O)[C@H](Cc2c[nH]c3ccccc23)NC(=O)[C@H](CC(=O)O)NC(=O)[C@H](Cc2ccc(O)cc2)NC(=O)[C@H](Cc2cccnc2)NC(=O)CSC[C@@H](C(=O)N[C@@H](C)C(N)=O)NC(=O)[C@H]([C@@H](C)O)NC(=O)[C@H](C(C)C)NC(=O)[C@H](CC(C)C)NC(=O)[C@H](CCN)NC(=O)[C@@H](CC(C)C)NC(=O)[C@H](C)N(C)C1=O [Compound 1401] ({CH2CO}-[3Pal]YDWV[Bip]I[NMeA][dL][Dab]LVTCA-NH2; thioether N-14)
6,0.02 µM,CC(C)C[C@@H]1NC(=O)[C@H](CCN)NC(=O)[C@@H](CC(C)C)NC(=O)[C@H](C)N(C)C(=O)[C@H](CCCNC(N)=O)NC(=O)[C@H](Cc2ccc(-c3ccccc3)cc2)NC(=O)[C@H](C(C)C)NC(=O)[C@H](Cc2c[nH]c3ccccc23)NC(=O)[C@H](CC(=O)O)NC(=O)[C@H](Cc2ccc(C#N)cc2)NC(=O)[C@H](Cc2ccncc2)NC(=O)CSC[C@@H](C(=O)N[C@@H](C)C(N)=O)NC(=O)[C@H]([C@@H](C)O)NC(=O)[C@H](C(C)C)NC1=O [Compound 1402] ({CH2CO}-[4Pal][Phe(4-CN)]DWV[Bip][Cit][NMeA][dL][Dab]LVTCA-NH2; thioether N-14)
7,0.13 µM,CC(C)C[C@@H]1NC(=O)[C@H](CCN)NC(=O)[C@@H](CC(C)C)NC(=O)[C@H](C)N(C)C(=O)[C@H](CCCNC(N)=O)NC(=O)[C@H](Cc2ccc(-c3ccccc3)cc2)NC(=O)[C@H](C(C)C)NC(=O)[C@H](Cc2c[nH]c3ccccc23)NC(=O)[C@H](CC(=O)O)NC(=O)[C@H](Cc2cccc(C#N)c2)NC(=O)[C@H](CN)NC(=O)CSC[C@@H](C(=O)N[C@@H](C)C(N)=O)NC(=O)[C@H]([C@@H](C)O)NC(=O)[C@H](C(C)C)NC1=O [Compound 1403] ({CH2CO}-[Dap][Phe(3-CN)]DWV[Bip][Cit][NMeA][dL][Dab]LVTCA-NH2; thioether N-14)
8,0.12 µM,CC(C)C[C@@H]1NC(=O)[C@H](CCN)NC(=O)[C@@H](CC(C)C)NC(=O)[C@H](C)N(C)C(=O)[C@H](CCCNC(N)=O)NC(=O)[C@H](Cc2ccc(-c3ccccc3)cc2)NC(=O)[C@H](C(C)C)NC(=O)[C@H](Cc2c[nH]c3ccccc23)NC(=O)[C@H](CC(=O)O)NC(=O)[C@H](Cc2ccc(C(=O)O)cc2)NC(=O)[C@H](CN)NC(=O)CSC[C@@H](C(=O)N[C@@H](C)C(N)=O)NC(=O)[C@H]([C@@H](C)O)NC(=O)[C@H](C(C)C)NC1=O [Compound 1404] ({CH2CO}-[Dap][Phe(4-COOH)]DWV[Bip][Cit][NMeA][dL][Dab]LVTCA-NH2; thioether N-14)
9,0.03 µM,CC[C@H](C)[C@@H]1NC(=O)[C@H](Cc2ccc(-c3ccccc3)cc2)NC(=O)[C@H](C(C)C)NC(=O)[C@H](Cc2c[nH]c3ccccc23)NC(=O)[C@H](CC(=O)O)NC(=O)[C@H](Cc2ccncc2)NC(=O)[C@H](CN)NC(=O)CSC[C@@H](C(=O)N[C@@H](C)C(N)=O)NC(=O)[C@H]([C@@H](C)O)NC(=O)[C@H](C(C)C)NC(=O)[C@H](CC(C)C)NC(=O)[C@H](CCN)NC(=O)[C@@H](CC(C)C)NC(=O)[C@H](C)N(C)C1=O [Compound 1405] ({CH2CO}-[Dap][4Pal]DWV[Bip]I[NMeA][dL][Dab]LVTCA-NH2; thioether N-14)
10,0.02 µM,CC[C@H](C)[C@@H]1NC(=O)[C@H](Cc2ccc(-c3ccccc3)cc2)NC(=O)[C@H](C(C)C)NC(=O)[C@H](Cc2c[nH]c3ccccc23)NC(=O)[C@H](CC(=O)O)NC(=O)[C@H](Cc2cccc(OC)c2)NC(=O)[C@H](Cc2ccncc2)NC(=O)CSC[C@@H](C(=O)N[C@@H](C)C(N)=O)NC(=O)[C@H]([C@@H](C)O)NC(=O)[C@H](C(C)C)NC(=O)[C@H](CC(C)C)NC(=O)[C@H](CCN)NC(=O)[C@@H](CC(C)C)NC(=O)[C@H](C)N(C)C1=O [Compound 1406] ({CH2CO}-[4Pal][Phe(3-OMe)]DWV[Bip]I[NMeA][dL][Dab]LVTCA-NH2; thioether N-14)
11,0.04 µM,CC[C@H](C)[C@@H]1NC(=O)[C@H](Cc2ccc(-c3ccccc3)cc2)NC(=O)[C@H](C(C)C)NC(=O)[C@H](Cc2c[nH]c3ccccc23)NC(=O)[C@H](CC(=O)O)NC(=O)[C@H](Cc2cccc(C#N)c2)NC(=O)[C@H](Cc2ccncc2)NC(=O)CSC[C@@H](C(=O)N[C@@H](C)C(N)=O)NC(=O)[C@H]([C@@H](C)O)NC(=O)[C@H](C(C)C)NC(=O)[C@H](CC(C)C)NC(=O)[C@H](CCN)NC(=O)[C@@H](CC(C)C)NC(=O)[C@H](C)N(C)C1=O [Compound 1407] ({CH2CO}-[4Pal][Phe(3-CN)]DWV[Bip]I[NMeA][dL][Dab]LVTCA-NH2; thioether N-14)
12,0.1 µM,CC(C)C[C@@H]1NC(=O)[C@H](CCN)NC(=O)[C@@H](CC(C)C)NC(=O)[C@H](C)N(C)C(=O)[C@H](CCCNC(N)=O)NC(=O)[C@H](Cc2ccc(-c3ccccc3)cc2)NC(=O)[C@H](C(C)C)NC(=O)[C@H](Cc2c[nH]c3ccccc23)NC(=O)[C@H](CC(=O)O)NC(=O)[C@H](Cc2ccc(C#N)cc2)NC(=O)[C@H](CN)NC(=O)CSC[C@@H](C(=O)N[C@@H](C)C(N)=O)NC(=O)[C@H]([C@@H](C)O)NC(=O)[C@H](C(C)C)NC1=O [Compound 1408] ({CH2CO}-[Dap][Phe(4-CN)]DWV[Bip][Cit][NMeA][dL][Dab]LVTCA-NH2; thioether N-14)
13,0.04 µM,CC[C@H](C)[C@@H]1NC(=O)[C@H](Cc2ccc(-c3ccccc3)cc2)NC(=O)[C@H](C(C)C)NC(=O)[C@H](Cc2c[nH]c3ccccc23)NC(=O)[C@H](CC(=O)O)NC(=O)[C@H](Cc2ccc(O)c([N+](=O)[O-])c2)NC(=O)[C@H](CN)NC(=O)CSC[C@@H](C(=O)N[C@@H](C)C(N)=O)NC(=O)[C@H]([C@@H](C)O)NC(=O)[C@H](C(C)C)NC(=O)[C@H](CC(C)C)NC(=O)[C@H](CCN)NC(=O)[C@@H](CC(C)C)NC(=O)[C@H](C)N(C)C1=O [Compound 1409] ({CH2CO}-[Dap][Tyr(3-NO2)]DWV[Bip]I[NMeA][dL][Dab]LVTCA-NH2; thioether N-14)
14,0.02 µM,CC[C@H](C)[C@@H]1NC(=O)[C@H](Cc2ccc(-c3ccccc3)cc2)NC(=O)[C@H](C(C)C)NC(=O)[C@H](Cc2c[nH]c3ccccc23)NC(=O)[C@H](CC(=O)O)NC(=O)[C@H](Cc2ccncc2)NC(=O)[C@H](Cc2ccncc2)NC(=O)CSC[C@@H](C(=O)N[C@@H](C)C(N)=O)NC(=O)[C@H]([C@@H](C)O)NC(=O)[C@H](C(C)C)NC(=O)[C@H](CC(C)C)NC(=O)[C@H](CCN)NC(=O)[C@@H](CC(C)C)NC(=O)[C@H](C)N(C)C1=O [Compound 1410] ({CH2CO}-[4Pal][4Pal]DWV[Bip]I[NMeA][dL][Dab]LVTCA-NH2; thioether N-14)
15,0.02 µM,CC[C@H](C)[C@@H]1NC(=O)[C@H](Cc2ccc(-c3ccccc3)cc2)NC(=O)[C@H](C(C)C)NC(=O)[C@H](Cc2c[nH]c3ccccc23)NC(=O)[C@H](CC(=O)O)NC(=O)[C@H](Cc2ccc(C(=O)O)cc2)NC(=O)[C@H](Cc2ccncc2)NC(=O)CSC[C@@H](C(=O)N[C@@H](C)C(N)=O)NC(=O)[C@H]([C@@H](C)O)NC(=O)[C@H](C(C)C)NC(=O)[C@H](CC(C)C)NC(=O)[C@H](CCN)NC(=O)[C@@H](CC(C)C)NC(=O)[C@H](C)N(C)C1=O [Compound 1411] ({CH2CO}-[4Pal][Phe(4-COOH)]DWV[Bip]I[NMeA][dL][Dab]LVTCA-NH2; thioether N-14)
